Test: recombinant barcode read abundance after kanamycin selection (control-corrected) (log10(CPM+1)); higher = more efficient recombination; sequences stand for … in AGTGCAGAGAAAATCGGCCAGTTTTCTCTGCCTGCAGTCCGCATGCCGT…AGATTTATGCAGCGGACTGCCTTTCTCCCAAAGTGATAAACCGGACAGTATCATGGACCGGTTTTCCCGGTAATCCGTATTTGCAAGGTTGGTTTCACT; site = the 11-nt target
Description: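 Pooled E. coli target-specificity screen for the IS621 bridge recombinase. Each library plasmid pairs an 11-nt target (CT core) with a bridge RNA whose target-binding loop (9-nt LTG + 4-nt RTG) is reprogrammed; the rest of the 177-nt WT IS621 bridge RNA scaffold is fixed. The plasmid is co-electroporated with a WT donor plasmid; recombinase is induced with 0.1 mM IPTG and recombinants are selected on kanamycin. Recombinant barcodes are sequenced, converted to CPM, averaged over two biological replicates and corrected by the unselected control CPM. Molecule = full bridge RNA written as DNA: LTG = specificity nt 1-9, RTG = reverse complement of specificity nt 8-11, in the WT scaffold.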
In the case of “ACATGCACTTGGGTTCTAACCTGTTGCAT (site ACATGAACTAT)”, the “recombinant barcode read abundance (log10)” value is reported as 0.0673.
With “ACATGCACTTGGGTTCTAACCTGTTGCAT (site ACATGCACTAT)” the “recombinant barcode read abundance (log10)” value was 1.05.
For “ACATGCACTTGGGTTCTAACCTGTTGCAT (site ACATGGACTAT)”, the “recombinant barcode read abundance (log10)” value was 0.0168.
In the case of “ACATGCACTTGGGTTCTAACCTGTTGCAT (site ACATGTACTAT)”, the “recombinant barcode read abundance (log10)” value is reported as 0.116.
With “ACATGTCCTTGGGTTCTAACCTGTTGCAT (site ACATGTCCTAA)” the “recombinant barcode read abundance (log10)” value was 0.374.
For “ACATGTCCTTGGGTTCTAACCTGTTGCAT (site ACATGTCCTAC)”, the “recombinant barcode read abundance (log10)” value was 1.24.
With “ACATGTCCTTGGGTTCTAACCTGTTGCAT (site ACATGTCCTAG)” the “recombinant barcode read abundance (log10)” value was 0.137.
With “ACATGTCCTTGGGTTCTAACCTGTTGCAT (site ACATGTCCTAT)” the “recombinant barcode read abundance (log10)” value was 1.99.
For “ACATTGTCTTGGGTTCTAACCTGTTGCCT (site ACATTGTCTAG)”, the “recombinant barcode read abundance (log10)” value was 1.73.
For “ACATTGTCTTGGGTTCTAACCTGTTGCCT (site ACCTTGTCTAG)”, the “recombinant barcode read abundance (log10)” value was 0.0705.
In the case of “ACATTGTCTTGGGTTCTAACCTGTTGCCT (site ACGTTGTCTAG)”, the “recombinant barcode read abundance (log10)” value is reported as 0.0669.
For “ACATTGTCTTGGGTTCTAACCTGTTGCCT (site ACTTTGTCTAG)”, the “recombinant barcode read abundance (log10)” value was 0.284.
With “ACATTTACTTGGGTTCTAACCTGTTGCCT (site ACATTTACTAG)” the “recombinant barcode read abundance (log10)” value was 0.0855.
With “ACATTTACTTGGGTTCTAACCTGTTGCCT (site TCATATACTAG)” the “recombinant barcode read abundance (log10)” value was 0.242.
In the case of “ACATTTCCTTGGGTTCTAACCTGTTGCAT (site ACATTTCCTAT)”, the “recombinant barcode read abundance (log10)” value is reported as 0.8.
With “ACATTTCCTTGGGTTCTAACCTGTTGCAT (site TAGAACTCTGC)” the “recombinant barcode read abundance (log10)” value was 0.105.
In the case of “ACCAAAGCTTGGGTTCTAACCTGTTGCCA (site ACCAAAGCTTG)”, the “recombinant barcode read abundance (log10)” value is reported as 0.115.
For “ACCAAAGCTTGGGTTCTAACCTGTTGCCA (site ACCACAGCTAG)”, the “recombinant barcode read abundance (log10)” value was 0.137.
In the case of “ACCAAATCTTGGGTTCTAACCTGTTGCCG (site ACCAAATCTCG)”, the “recombinant barcode read abundance (log10)” value is reported as 0.0782.
In the case of “ACCAAATCTTGGGTTCTAACCTGTTGCCG (site ACCAAATCTTA)”, the “recombinant barcode read abundance (log10)” value is reported as 0.0479.
With “ACCAAGACTTGGGTTCTAACCTGTTGCCG (site ACCAAGACTCG)” the “recombinant barcode read abundance (log10)” value was 0.373.
For “ACCAAGACTTGGGTTCTAACCTGTTGCCG (site TCCAAGACTCT)”, the “recombinant barcode read abundance (log10)” value was 0.00901.
For “ACCAAGCCTTGGGTTCTAACCTGTTGCGG (site ACCAAGCCTCC)”, the “recombinant barcode read abundance (log10)” value was 1.36.
In the case of “ACCAAGCCTTGGGTTCTAACCTGTTGCGG (site GCCCAGCCTCC)”, the “recombinant barcode read abundance (log10)” value is reported as 0.295.
In the case of “ACCAATCCTTGGGTTCTAACCTGTTGCCT (site ACCAATACTAG)”, the “recombinant barcode read abundance (log10)” value is reported as 0.087.
In the case of “ACCAATCCTTGGGTTCTAACCTGTTGCCT (site ACCAATCCTAG)”, the “recombinant barcode read abundance (log10)” value is reported as 0.21.
In the case of “ACCAATCCTTGGGTTCTAACCTGTTGCCT (site ACCAATGCTAG)”, the “recombinant barcode read abundance (log10)” value is reported as 0.177.
For “ACCAATCCTTGGGTTCTAACCTGTTGCCT (site ACCAATTCTAG)”, the “recombinant barcode read abundance (log10)” value was 0.0626.
With “ACCAGGTCTTGGGTTCTAACCTGTTGCCT (site AACAGGTCTAG)” the “recombinant barcode read abundance (log10)” value was 0.15.
With “ACCAGGTCTTGGGTTCTAACCTGTTGCCT (site ACCAGGTCTAG)” the “recombinant barcode read abundance (log10)” value was 1.59.
In the case of “ACCAGGTCTTGGGTTCTAACCTGTTGCCT (site AGCAGGTCTAG)”, the “recombinant barcode read abundance (log10)” value is reported as 0.208.
For “ACCAGGTCTTGGGTTCTAACCTGTTGCCT (site ATCAGGTCTAG)”, the “recombinant barcode read abundance (log10)” value was 0.09.
With “ACCAGTCCTTGGGTTCTAACCTGTTGCTG (site ACCAGTCCTCA)” the “recombinant barcode read abundance (log10)” value was 1.97.
With “ACCAGTCCTTGGGTTCTAACCTGTTGCTG (site ACCAGTCCTTA)” the “recombinant barcode read abundance (log10)” value was 0.0735.
In the case of “ACCCAAACTTGGGTTCTAACCTGTTGCCT (site ACCCAAACTAG)”, the “recombinant barcode read abundance (log10)” value is reported as 1.08.
In the case of “ACCCAAACTTGGGTTCTAACCTGTTGCCT (site ACCCAACCTAG)”, the “recombinant barcode read abundance (log10)” value is reported as 0.0677.
In the case of “ACCCAAACTTGGGTTCTAACCTGTTGCCT (site ACCCAAGCTAG)”, the “recombinant barcode read abundance (log10)” value is reported as 0.161.
In the case of “ACCCAAACTTGGGTTCTAACCTGTTGCCT (site ACCCAATCTAG)”, the “recombinant barcode read abundance (log10)” value is reported as 0.0553.
With “ACCCGCTCTTGGGTTCTAACCTGTTGCCT (site ACCCGCTCTAG)” the “recombinant barcode read abundance (log10)” value was 0.542.
For “ACCCGCTCTTGGGTTCTAACCTGTTGCCT (site TAGGATCCTTC)”, the “recombinant barcode read abundance (log10)” value was 0.538.
For “ACCCTAACTTGGGTTCTAACCTGTTGCGG (site ACCCTAACTCC)”, the “recombinant barcode read abundance (log10)” value was 1.16.
In the case of “ACCCTAACTTGGGTTCTAACCTGTTGCGG (site ACCTTAGCTCC)”, the “recombinant barcode read abundance (log10)” value is reported as 0.
In the case of “ACCCTATCTTGGGTTCTAACCTGTTGCCT (site ACCCTAACTCG)”, the “recombinant barcode read abundance (log10)” value is reported as 0.0342.
With “ACCCTATCTTGGGTTCTAACCTGTTGCCT (site ACCCTATCTAG)” the “recombinant barcode read abundance (log10)” value was 1.39.
With “ACCCTCCCTTGGGTTCTAACCTGTTGCTA (site ACCCTCCCTTA)” the “recombinant barcode read abundance (log10)” value was 2.47.
For “ACCCTCCCTTGGGTTCTAACCTGTTGCTA (site ACTCTACCTTA)”, the “recombinant barcode read abundance (log10)” value was 0.136.
For “ACCGGTCCTTGGGTTCTAACCTGTTGCGT (site ACCGGTCCTAC)”, the “recombinant barcode read abundance (log10)” value was 2.14.
With “ACCGGTCCTTGGGTTCTAACCTGTTGCGT (site ATCGTTCCTAC)” the “recombinant barcode read abundance (log10)” value was 0.0193.
For “ACCGTACCTTGGGTTCTAACCTGTTGCCT (site ACCGTACCTAG)”, the “recombinant barcode read abundance (log10)” value was 0.304.
In the case of “ACCGTACCTTGGGTTCTAACCTGTTGCCT (site ACCGTAGCTAG)”, the “recombinant barcode read abundance (log10)” value is reported as 0.0594.
With “ACCGTTCCTTGGGTTCTAACCTGTTGCCT (site ACCGTTCCTAG)” the “recombinant barcode read abundance (log10)” value was 0.78.
In the case of “ACCGTTCCTTGGGTTCTAACCTGTTGCCT (site CTTTAAGCTTA)”, the “recombinant barcode read abundance (log10)” value is reported as 0.0328.
With “ACCTAACCTTGGGTTCTAACCTGTTGCAT (site ACCTAACCTAT)” the “recombinant barcode read abundance (log10)” value was 1.67.
In the case of “ACCTAACCTTGGGTTCTAACCTGTTGCAT (site ATCTATCCTAT)”, the “recombinant barcode read abundance (log10)” value is reported as 0.214.
With “ACCTACCCTTGGGTTCTAACCTGTTGCGG (site ACCTACCCTCC)” the “recombinant barcode read abundance (log10)” value was 2.33.
For “ACCTACCCTTGGGTTCTAACCTGTTGCGG (site CGAACATCTAA)”, the “recombinant barcode read abundance (log10)” value was 0.169.
In the case of “ACCTACCCTTGGGTTCTAACCTGTTGCGT (site ACATATCCTAC)”, the “recombinant barcode read abundance (log10)” value is reported as 0.0563.
For “ACCTACCCTTGGGTTCTAACCTGTTGCGT (site ACCTACCCTAC)”, the “recombinant barcode read abundance (log10)” value was 1.54.
For “ACCTACTCTTGGGTTCTAACCTGTTGCCT (site ACCTACGCTAG)”, the “recombinant barcode read abundance (log10)” value was 0.0426.
For “ACCTACTCTTGGGTTCTAACCTGTTGCCT (site ACCTACTCTAG)”, the “recombinant barcode read abundance (log10)” value was 1.36.
For “ACCTGAACTTGGGTTCTAACCTGTTGCCT (site ACATGAACTAG)”, the “recombinant barcode read abundance (log10)” value was 0.056.
For “ACCTGAACTTGGGTTCTAACCTGTTGCCT (site ACCTGAACTAG)”, the “recombinant barcode read abundance (log10)” value was 0.75.
For “ACCTGAACTTGGGTTCTAACCTGTTGCCT (site ACGTGAACTAG)”, the “recombinant barcode read abundance (log10)” value was 0.0712.
In the case of “ACCTGAACTTGGGTTCTAACCTGTTGCCT (site ACTTGAACTAG)”, the “recombinant barcode read abundance (log10)” value is reported as 0.0237.
For “ACCTGTGCTTGGGTTCTAACCTGTTGCCT (site ACCTGTGCTAG)”, the “recombinant barcode read abundance (log10)” value was 0.874.
In the case of “ACCTGTGCTTGGGTTCTAACCTGTTGCCT (site ATCTGTTCTAG)”, the “recombinant barcode read abundance (log10)” value is reported as 0.151.

From the supplement of paper PMC11208160
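Note: IS621 recombinase and bridge RNA in Escherichia coli cells.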
